Data set [1] in a line: Thermal stability, TG/DTA measurement. Particulars: for thermal stability higher compared to Z-DOL (Comparative Example 10C) / thermal stability higher compared to Z-TETRAOL (Comparative Example 11C): difference of weight reduction temperatures; for Weight reduction temperature 5% / Weight reduction temperature 10% / Weight reduction temperature 20%: air 200 mL/min, 30° C. to 600° C., heating rate 10° C./min.

The conditions of data set [2]: in acetonitrile; cited from earlier work.
Data set [3] is described as follows: Solubility to fluorine-based solvent (Vertrel XF), 1.0/0.5/0.1 parts by mass added. Conditions: Vertrel XF [CF3(CHF)2CF2CF3], 25° C., ultrasonic waves 5 minutes, left 1 day, visual observation; 0.5 and 0.1 parts by mass per 100 parts. On the procedure: Then, the resultant was left to stand for 1 day and solubility thereof was visually observed.
Then, the resultant was left to stand for 1 day and solubility thereof was visually observed, followed by evaluation based on the following evaluation criteria.
[Evaluation Criteria] • 0.5% by mass or more:
When 0.5 parts by mass of the ionic liquid was added, dissolution was found. • 0.1% by mass or more but less than 0.5% by mass:
When 0.5 parts by mass of the ionic liquid was added, no dissolution was found. However, when 0.1 parts by mass of the ionic liquid was added, dissolution was found. • Less than 0.1% by mass:
When 0.5 parts by mass of the ionic liquid was added, no dissolution was found. Moreover, when 0.1 parts by mass of the ionic liquid was added, no dissolution was found.

Data set [4] in a line: Solubility to solvents (Vertrel XF, n-hexane, ethanol). Type of data set: physicochemical. Conditions: 25° C., visual observation after 1 day; for Solubility Fluorine-based solvent: Vertrel XF, 0.2 parts by mass per 100 parts; for Solubility Ethanol / Solubility n-Hexane: 0.5 parts by mass per 100 parts.
Procedure: To a predetermined mass of Vertrel XF, n-hexane, or ethanol, each of the ionic liquids was added and was irradiated with ultrasonic waves for 5 minutes. Then, the resultant was left to stand for 1 day and solubility thereof was visually observed.
Specifically, to 100 parts by mass of Vertrel XF (25° C.), 0.2 parts by mass of the ionic liquid was added and was irradiated with ultrasonic waves for 5 minutes. Then, the resultant was left to stand for 1 day and solubility thereof was visually observed, followed by evaluation based on the following evaluation criteria. In the cases of n-hexane and ethanol, each of the ionic liquids (0.5 parts by mass) was added to 100 parts by mass of n-hexane or ethanol at 25° C. The resultant was irradiated with ultrasonic waves for 5 minutes. Then, the resultant was left to stand for 1 day and solubility thereof was visually observed, followed by evaluation based on the following evaluation criteria.
<<Vertrel XF>> • 0.2% by mass or more:
When 0.2 parts by mass of the ionic liquid was added, dissolution was found. • Less than 0.2% by mass:
When 0.2 parts by mass of the ionic liquid was added, no dissolution was found.
<<n-Hexane and Ethanol>> • 0.5% by mass or more:
When 0.5 parts by mass of the ionic liquid was added, dissolution was found. • Less than 0.5% by mass:

Where only a bound is given, the exact number is not on record here.

On to `CCCCCCCCCCCCCCCCCC[n+]1ccn(CCCO)c1CCCCCCCCCCCCCCCCC.O=S(=O)([N-]S(=O)(=O)C(F)(F)C(F)(F)C(F)(F)C(F)(F)F)C(F)(F)C(F)(F)C(F)(F)C(F)(F)F`, for which, in data set [1], the “thermal stability higher compared to Z-DOL (Comparative Example 10C)” value was at least 160 °C and the “thermal stability higher compared to Z-TETRAOL (Comparative Example 11C)” value is at least 85 °C.
For `CCCCCCCCCCCCCC[N+](C)(C)CCCO.O=S(=O)([N-]S(=O)(=O)C(F)(F)C(F)(F)C(F)(F)C(F)(F)F)C(F)(F)C(F)(F)C(F)(F)C(F)(F)F`, in that order: at least 145 °C and at least 90 °C.
For `CCCCCCCCCCCCCCCCCC[N+](C)(C)CCCO.O=S(=O)([N-]S(=O)(=O)C(F)(F)C(F)(F)C(F)(F)C(F)(F)F)C(F)(F)C(F)(F)C(F)(F)C(F)(F)F`, in that order: at least 150 °C and at least 90 °C.
For `CCCCCCCCCCCCCCCCCC[N+]1(CCCO)CCCC1.O=S(=O)([N-]S(=O)(=O)C(F)(F)C(F)(F)C(F)(F)C(F)(F)F)C(F)(F)C(F)(F)C(F)(F)C(F)(F)F`, in that order: at least 160 °C and at least 100 °C.
In the case of `CCCCCCCCCCCCCCCCCC[n+]1ccn(CCCO)c1.O=S(=O)([N-]S(=O)(=O)C(F)(F)C(F)(F)C(F)(F)C(F)(F)F)C(F)(F)C(F)(F)C(F)(F)C(F)(F)F`, in data set [1], the “thermal stability higher compared to Z-DOL (Comparative Example 10C)” value is at least 150 °C and the “thermal stability higher compared to Z-TETRAOL (Comparative Example 11C)” value is at least 90 °C.
For the compound `O=S(=O)(C(S(=O)(=O)C(F)(F)F)S(=O)(=O)C(F)(F)F)C(F)(F)F` [(CF3SO2)3CH], in data set [2], the pKa is reported as −3.7.
With `CCCCCCCCCCCCCCCCCC[n+]1ccn(CCCC)c1.O=S1(=O)[N-]S(=O)(=O)C(F)(F)C(F)(F)C1(F)F` [Comparative Example 2A, hexafluorocyclopropane-1,3-bis(sulfonyl)imide-1-butyl-3-n-octadecylimidazolium, reference compound], in data set [1], the “Weight reduction temperature 5%” value was 347.2 °C, the “Weight reduction temperature 10%” value amounted to 367.0 °C and the “Weight reduction temperature 20%” value is 387.8 °C. Besides, the Fluorine-based solvent solubility result in data set [3] is on record as “Less than 0.1% by % by mass”.
With `CCCCCCCCCCCCCCCCCCn1ccnc1CCCCCCCCCCCCCCCCC.O=S1(=O)NS(=O)(=O)C(F)(F)C(F)(F)C1(F)F` [Comparative Example 7A, hexafluorocyclopropane-1,3-bis(sulfonyl)imide-1-octadecyl-2-heptadecylimidazolium, reference compound], in data set [1], the “Weight reduction temperature 5%” value turned out to be 303.7 °C, the “Weight reduction temperature 10%” value was 366.4 °C and the “Weight reduction temperature 20%” value worked out at 405.0 °C. In addition, in data set [4], the “Solubility Fluorine-based solvent” value is “Less than 0.2% by mass”, the “Solubility Ethanol” value is at least 0.5% by mass and the “Solubility n-Hexane” value is on record as below 0.5% by mass.
As for `CCCCCCCCCCCCCCCCCCN.O=S(=O)(NS(=O)(=O)C(F)(F)C(F)(F)C(F)(F)C(F)(F)F)C(F)(F)C(F)(F)C(F)(F)C(F)(F)F` [Comparative Example 8A, bis(nonafluorobutanesulfonyl)imide-octadecylammonium, reference compound], in data set [1], the “Weight reduction temperature 5%” value stood at 311.8 °C, the “Weight reduction temperature 10%” value was determined as 329.8 °C and the “Weight reduction temperature 20%” value worked out at 348.0 °C. Also, in data set [4], the “Solubility Fluorine-based solvent” value is “Less than 0.2% by mass”, the “Solubility Ethanol” value was at least 0.5% by mass and the “Solubility n-Hexane” value is on record as below 0.5% by mass.
As to `CCCCCCCCCCCCCCCCCC[n+]1ccn(CCCO)c1.O=S(=O)([N-]S(=O)(=O)C(F)(F)C(F)(F)C(F)(F)C(F)(F)F)C(F)(F)C(F)(F)C(F)(F)C(F)(F)F` [Example 2A, bis(nonafluorobutanesulfonyl)imide1-3′hydroxypropyl-3-octadecylimidazolium], in data set [1], the “Weight reduction temperature 5%” value was 327.7 °C, the “Weight reduction temperature 10%” value worked out at 361.7 °C and the “Weight reduction temperature 20%” value came out at 389.3 °C.
For `CCCCCCCCCCCCCCCCCC[N+]1(CCCO)CCCC1.O=S(=O)([N-]S(=O)(=O)C(F)(F)C(F)(F)C(F)(F)C(F)(F)F)C(F)(F)C(F)(F)C(F)(F)C(F)(F)F` [Example 3A, bis(nonafluorobutanesulfonyl)imide-N-3′hydroxypropyl-N-octadecylpyrrolidinium], in that order: 349.8 °C, 370.8 °C and 387.6 °C.
Regarding `CCCCCCCCCCCCCCCCCCC1CCCCN2CCC[N+](CCCO)=C12.O=S(=O)([N-]S(=O)(=O)C(F)(F)C(F)(F)C(F)(F)C(F)(F)F)C(F)(F)C(F)(F)C(F)(F)C(F)(F)F` (stereo not shown) [Example 5A, bis(nonafluorobutanesulfonyl)imide-6-octadecyl-8-3′-hydroxypropyl-1,8-diazabicyclo[5.4 0.0]-7-undecenium], in data set [1], the “Weight reduction temperature 5%” value amounted to 326.2 °C, the “Weight reduction temperature 10%” value was found to be 360.8 °C, the “Weight reduction temperature 20%” value amounted to 387.7 °C and the “thermal stability higher compared to Z-DOL (Comparative Example 10C)” value is at least 160 °C. For the same compound, the “thermal stability higher compared to Z-TETRAOL (Comparative Example 11C)” value in data set [1] is at least 85 °C.
For `CCCCCCCCCCCCCCCCCC[n+]1ccn(CCCO)c1CCCCCCCCCCCCCCCCC.O=S(=O)([N-]S(=O)(=O)C(F)(F)C(F)(F)C(F)(F)C(F)(F)F)C(F)(F)C(F)(F)C(F)(F)C(F)(F)F` [Example 8A, bis(nonafluorobutanesulfonyl)imide-1-3′hydroxypropyl-2-heptadecyl-3-octadecylimidazolium], in data set [1], the “Weight reduction temperature 5%” value is 327.8 °C, the “Weight reduction temperature 10%” value is 364.3 °C and the “Weight reduction temperature 20%” value amounted to 398.8 °C.
For `CCCCCCCCCCCCCC[N+](C)(C)CCCO.O=S(=O)([N-]S(=O)(=O)C(F)(F)C(F)(F)C(F)(F)C(F)(F)F)C(F)(F)C(F)(F)C(F)(F)C(F)(F)F` [Example 9A, bis(nonafluorobutanesulfonyl)imide-N-3′hydroxypropyl-N,N-dimethyltetradecylammonium], in that order: 340.0 °C, 359.0 °C and 375.0 °C.
For `CCCCCCCCCCCCCCCCCC[N+](C)(C)CCCO.O=S(=O)([N-]S(=O)(=O)C(F)(F)C(F)(F)C(F)(F)C(F)(F)F)C(F)(F)C(F)(F)C(F)(F)C(F)(F)F` [Example 10A, bis(nonafluorobutanesulfonyl)imide-N-3′hydroxypropyl-N,N-dimethyloctadecylammonium], in that order: 336.5 °C, 359.4 °C and 376.6 °C.
Regarding `O=S(=O)(NS(=O)(=O)C(F)(F)C(F)(F)C(F)(F)C(F)(F)F)C(F)(F)C(F)(F)C(F)(F)C(F)(F)F` [bis(nonafluorobutanesulfonyl)imide], in data set [2], the pKa is reported as 0.0.
Consider `O=S1(=O)NS(=O)(=O)C(F)(F)C(F)(F)C1(F)F` [hexafluorocyclopropane-1,3-bis(sulfonyl)imide], for which the pKa in data set [2] is on record as −0.8.
In the case of `F[B-](F)(F)F.[H+]` [tetrafluoroboric acid], the pKa in data set [2] is 1.8.
In the case of “bis(nonafluorobutanesulfonyl)imide-1-dodecyl-2-undecyl-3-3′hydroxypropyloctadecylimidazolium [Example 7A]”, in data set [1], the “Weight reduction temperature 5%” value was found to be 350.9 °C, the “Weight reduction temperature 10%” value was 373.7 °C and the “Weight reduction temperature 20%” value stood at 394.8 °C.
For “heptadecafluorooctanesulfonic acid-6-octadecyl-1,8-diazabicyclo[5.4.0]-7-undecenium”, in that order: 361.9 °C, 382.7 °C and 403.5 °C.
Take “heptadecafluorooctanesulfonic acid-6-octadecyl-1,8-diazabicyclo[5.4.0]-7-undecenium [Comparative Example 3A]”: the Fluorine-based solvent solubility result in data set [3] was “Less than 0.1% by % by mass”.
“nonafluorobutanesulfonic acid-1-octadecyl-2-heptadecylimidazolium”: in data set [1], the “Weight reduction temperature 5%” value is 338.2 °C, the “Weight reduction temperature 10%” value turned out to be 365.9 °C and the “Weight reduction temperature 20%” value worked out at 390.1 °C.
For the compound “nonafluorobutanesulfonic acid-1-octadecylimidazolium”, in data set [1], the “Weight reduction temperature 5%” value came out at 349.3 °C, the “Weight reduction temperature 10%” value is 375.0 °C and the “Weight reduction temperature 20%” value worked out at 397.5 °C.
For “nonafluorobutanesulfonic acid-N,N,N-trimethyloctadecylammonium [Comparative Example 9A, reference compound]”, in that order: 340.5 °C, 356.2 °C and 371.9 °C.
Consider “pentadecafluorooctanoic acid octadecylammonium [pentadecafluorooctanoic acid octadecylammonium]”, for which, in data set [1], the “Weight reduction temperature 5%” value came to 206.9 °C, the “Weight reduction temperature 10%” value came out at 215.8 °C and the “Weight reduction temperature 20%” value worked out at 223.4 °C.
Turning to perfluorocyclopropane sulfoimide, the pKa in data set [2] is reported as −0.8.

Values taken from patent US20190051326A1, “Ionic Liquid, Lubricant, and Magnetic Recording Medium” (priority 2016, published 2019).
